US20190105367A1, “ANTIMICROBIAL 4-OXOQUINOLIZINES” (Emergent Product Development Gaithersburg Inc., priority 2011, published 2019)
Converted amounts (≈) assume the structure as drawn.

Key:
[1] = test system: S. aureus ATCC 25923; experiment: MIC, selected panel of bacterial strains (Example 5); format: cell-based, Staphylococcus aureus; settings: Staphylococcus aureus, ATCC25923, read-out: MICs against Gram positive bacteria S. aureus ATCC 25923
[2] = test system: S. aureus ATCC 43300 (MRSA, FQ-S); experiment: as above; format: cell-based, Staphylococcus aureus; settings: Staphylococcus aureus, read-out: MICs against Gram positive bacteria S. aureus ATCC 43300 (MRSA, FQ-S)
[3] = test system: GN31 Acinetobacter baumannii antibiotic susceptible isolate; experiment: Chequerboard synergy with polymyxin B, FICI (Example 6); format: cell-based
Source text: (§1) A chequerboard technique was used to identify possible synergistic or antagonistic interactions between the 4-oxoquinolizines compounds, levofloxacin and polymyxin B. Levofloxacin was included as a control. […] Final dilutions were made in Mueller-Hinton broth, the specific test medium used for MIC determinations according to CLSI guidelines (CLSI. Methods for Dilution Antimicrobial Susceptibility Tests for Bacteria That Grow Aerobically; Approved Standard-Eighth Edition (2009). CLSI Document M07-A8. CLSI, Wayne, Pa. 19087-1898, USA.). The test medium used was a cation-adjusted Mueller-Hinton Broth II (Becton Dickinson UK Ltd., Oxford Science Park, Oxford, UK, OX4 4DQ).
(§2) The compounds 2, 33 and 35, as well as levofloxacin were tested in combination with polymyxin B on the following isolates: GN31 Acinetobacter baumannii—antibiotic susceptible clinical isolate, GN52 Acinetobacter baumannii—levofloxacin resistant clinical isolate, GN56 Acinetobacter baumannii—levofloxacin resistant clinical isolate, GN48 Klebsiella pneumoniae—NCTC 13443—NDM-1-metallo-β-lactamase and GN10 Pseudomonas aeruginosa—ATCC 27853—antibiotic susceptible reference isolate. All isolates are from the collection maintained at Quotient Bioresearch Ltd., Cambridge, UK.
(§3) The MIC values for the compounds and polymyxin B and levofloxacin were determined by broth microdilution following CLSI guidelines, and the MICs of agents in combination were determined as described by Pillai et. al (Pillai S K, Moellering R C Jr, Eliopoulis G M; Antimicrobial Combinations in Antibiotics in Laboratory Medicine 5th Edition (V. Lorian Ed) (2005) p 365-440). Initial MIC results were used to determine the microtiter plate patterns for the chequerboards. A suitable doubling dilution concentration range was selected such that the combination antibiotic range was at least two concentrations above and four concentrations below the MIC for each isolate. A fixed range of 0.008 to 8 mg/L was tested for polymyxin B except in the case of A. baumannii GN31 where a range of 0.004 to 4 mg/L was tested when in combination with the compounds 2, 33 and 35 as well as levofloxacin.
(§4) From the raw data, fractional inhibitory concentration indices (FICI) were determined for the compounds of the invention and levofloxacin together with polymyxin B for each isolate as follows:
(§5) FICX=concentration of the combination antibiotic in a particular row MIC of the combination drug alone
(§6) FICY=MIC of polymyxin B in combination[…]MIC of the polymyxin B alone
(§7) Additionally isobolograms were created to represent the same data visually. Here, the MIC of polymyxin B was plotted against every concentration of the combination antibiotic up to the MIC.

[4] = test system: GN48 Klebsiella pneumoniae NCTC 13443 NDM-1-β-lactamase producing isolate; experiment: as above; format: cell-based
Source text: as §1, §2, §3, §4, §5, §6, §7

[5] = test system: GN52 Acinetobacter baumannii levofloxacin resistant clinical isolate; experiment: as above; format: cell-based
Source text: as §1, §2, §3, §4, §5, §6, §7

[6] = test system: GN56 Acinetobacter baumannii levofloxacin resistant clinical isolate; experiment: as above; format: cell-based
Source text: as §1, §2, §3, §4, §5, §6, §7

[7] = test system: strains of A. baumannii and one strain of Acinetobacter sp.; experiment: MIC with sub-inhibitory concentrations (0.25x MIC) of polymyxin B, panel of Acinetobacter strains (Example 4); format: cell-based; settings: 1st experiment; […] polymyxin B; ATCC 19606, A329, A390 and A473 not taken
[8] = test system: A. baumannii ATCC 19606; experiment: MIC without and with sub-inhibitory polymyxin B (Example 4); format: cell-based, Acinetobacter baumannii; settings: 1st experiment
[9] = test system: A. baumannii ATCC 19606; experiment: Preliminary MBC without and with sub-inhibitory polymyxin B (Example 4); format: cell-based, Acinetobacter baumannii; settings: Acinetobacter baumannii, ATCC19606, read-out: MBC +0.06 μg/ml PB, A. baumannii ATCC 19606, +0.06 μg/ml polymyxin B, 1st experiment
[10] = test system: A. baumannii J2; experiment: MIC without and with sub-inhibitory polymyxin B (Example 4); format: cell-based, Acinetobacter baumannii; settings: 1st experiment
[11] = test system: A. baumannii J2; experiment: Preliminary MBC without and with sub-inhibitory polymyxin B (Example 4); format: cell-based, Acinetobacter baumannii; settings: Acinetobacter baumannii, J2, read-out: MBC +[…] PB, A. baumannii J2; +[…] polymyxin B; preliminary MBC; 1st experiment
[12] = test system: Acinetobacter sp. (H064200250); experiment: MIC without and with sub-inhibitory polymyxin B (Example 4); format: cell-based; settings: 1st experiment
[13] = test system: Acinetobacter sp. (H064200250); experiment: Preliminary MBC without and with sub-inhibitory polymyxin B (Example 4); format: cell-based; settings: Acinetobacter, read-out: MBC +[…] PB, Acinetobacter spp. H064200250; +[…] polymyxin B; preliminary MBC; 1st experiment
Description: (§8) The plates were incubated for 18-20 hours at 37° C. The MBC was read as the lowest concentration at which colony growth was ca. 90% less than the positive control (i.e. usually where single colonies or no colonies were observed).

[14] = test system: A. baumannii A387; experiment: MIC without and with sub-inhibitory polymyxin B (Example 4); format: cell-based, Acinetobacter baumannii; settings: 1st experiment
[15] = test system: A. baumannii A387; experiment: Preliminary MBC without and with sub-inhibitory polymyxin B (Example 4); format: cell-based, Acinetobacter baumannii; settings: Acinetobacter baumannii, A387, read-out: MBC +0.06 μg/ml PB, A. baumannii A387, +0.06 μg/ml polymyxin B, 1st experiment
[16] = test system: A. baumannii NCTC 13301; experiment: as above; format: cell-based, Acinetobacter baumannii; settings: Acinetobacter baumannii, NCTC13301, read-out: MBC +[…] PB
Description: as §8

[17] = test system: A. baumannii A401; experiment: MIC without and with sub-inhibitory polymyxin B (Example 4); format: cell-based, Acinetobacter baumannii; settings: 1st experiment
[18] = test system: A. baumannii A401; experiment: Preliminary MBC without and with sub-inhibitory polymyxin B (Example 4); format: cell-based, Acinetobacter baumannii; settings: Acinetobacter baumannii, A401, read-out: MBC +0.06 μg/ml PB, A baumannii A 401, +0.06 μg/ml polymyxin B, 1st experiment
[19] = test system: A. baumannii A472; experiment: MIC without and with sub-inhibitory polymyxin B (Example 4); format: cell-based, Acinetobacter baumannii; settings: 1st experiment
[20] = test system: A. baumannii A472; experiment: Preliminary MBC without and with sub-inhibitory polymyxin B (Example 4); format: cell-based, Acinetobacter baumannii; settings: Acinetobacter baumannii, A472, read-out: MBC +[…] PB, A. baumannii A472; +[…] polymyxin B; preliminary MBC; 1st experiment
[21] = test system: A. baumannii A489; experiment: MIC without and with sub-inhibitory polymyxin B (Example 4); format: cell-based, Acinetobacter baumannii; settings: 1st experiment
[22] = test system: A. baumannii A489; experiment: Preliminary MBC without and with sub-inhibitory polymyxin B (Example 4); format: cell-based, Acinetobacter baumannii; settings: Acinetobacter baumannii, A489, read-out: MBC +[…] PB, A. baumannii A489; +[…] polymyxin B; preliminary MBC; 1st experiment
[23] = test system: A. baumannii NCTC 13301; experiment: MIC without and with sub-inhibitory polymyxin B (Example 4); format: cell-based, Acinetobacter baumannii
[24] = test system: A. baumannii A14; experiment: as above; format: cell-based, Acinetobacter baumannii; settings: 1st experiment
[25] = test system: A. baumannii A14; experiment: Preliminary MBC without and with sub-inhibitory polymyxin B (Example 4); format: cell-based, Acinetobacter baumannii; settings: A. baumannii A14, preliminary MBC, 1st experiment
[26] = in combination with polymyxin B
[27] = polymyxin B with the named antibiotic

Cc1c(-c2ccc3[nH]ncc3c2)c(F)cn2c(=O)c(C(=O)[O-])cc(C3CC3)c12.[K+] [Compound 75K salt, potassium 8-(1H-indazol-5-yl)-1-cyclopropyl-7-fluoro-9-methyl-4-oxo-4H-quinolizine-3-carboxylate]
MIC [1]: 50 µg/mL | MIC [2]: 50 µg/mL

Cc1c(-c2cnc3[nH]ccc3c2)ccn2c(=O)c(C(=O)[O-])cc(C3CC3)c12.[K+] [Compound 85K salt, potassium 8-(1H-pyrrolo[2,3-b]pyridin-5-yl)-1-cyclopropyl-9-methyl-4-oxo-4H-quinolizine-3-carboxylate]
MIC [1]: 50 µg/mL | MIC [2]: 50 µg/mL

Cc1c(C2=CCNCC2)c(F)cn2c(=O)c(C(=O)[O-])cc(C3CC3)c12.[K+] [Compound 62K salt, potassium 8-(1,2,3,6-tetrahydropyridin-4-yl)-1-cyclopropyl-7-fluoro-9-methyl-4-oxo-4H-quinolizine-3-carboxylate]
MIC [2]: 0.125 µg/mL

Cc1c(-c2ccc(N)nc2)c(F)cn2c(=O)c(C(=O)[O-])cc(C3CC3)c12.[K+] [Compound 60K salt, potassium 8-(6-aminopyridin-3-yl)-1-cyclopropyl-7-fluoro-9-methyl-4-oxo-4H-quinolizine-3-carboxylate]
MIC [2]: < 0.004 µg/mL

Cc1c(-c2ccc3[nH]ncc3c2)ccn2c(=O)c(C(=O)O)cc(C3CC3)c12 [Compound 35, 8-(1H-indazol-5-yl)-1-cyclopropyl-9-methyl-4-oxo-quinolizine-3-carboxylic acid]
Combination drug MIC alone [3]: 0.03 µg/mL | FICx [3]: 0.13 | FICy [3]: 0.48 | FICI ([3]; combination with polymyxin B): 0.61 | Synergy ([3]; combination with polymyxin B): Partial synergy (partial synergy/addition (FICI 0.51 to 0.75)) | Combination drug concentration in combination [3, 26]: 0.004 mg/L | Polymyxin B MIC in combination [3, 27]: 0.12 µg/mL | FICx [4]: 0.06 | FICy [4]: 0.50 | FICI ([4]; combination with polymyxin B): 0.56 | Synergy ([4]; combination with polymyxin B): Partial synergy (partial synergy/addition (FICI 0.51 to 0.75)) | Synergy ([4]; combination with polymyxin B, listed as compound 35): partial synergy | Combination drug concentration in combination [4, 26]: 1 mg/L | Polymyxin B MIC in combination [4, 27]: 0.25 µg/mL | Combination drug MIC alone [5]: 2 µg/mL | FICx [5]: 0.25 | FICy [5]: 0.24 | FICI ([5]; combination with polymyxin B): 0.49 | Synergy ([5]; combination with polymyxin B): Synergy (Synergy (FICI <0.5)) | Combination drug concentration in combination [5, 26]: 0.5 mg/L | Polymyxin B MIC in combination [5, 27]: 0.12 µg/mL | Combination drug MIC alone [6]: 8 µg/mL | FICx [6]: 0.06 | FICy [6]: 0.50 | FICI ([6]; combination with polymyxin B): 0.56 | Synergy ([6]; combination with polymyxin B): Partial synergy (partial synergy/addition (FICI 0.51 to 0.75)) | Combination drug concentration in combination [6, 26]: 0.5 mg/L | Polymyxin B MIC in combination [6, 27]: 0.25 µg/mL

Cc1c(-c2ccc(N)c(F)c2)c(F)cn2c(=O)c(C(=O)O)cc(C3CC3)c12 [Compound 17, 8-(3-fluoro-4-amino-phenyl)-1-cyclopropyl-7-fluoro-9-methyl-4-oxo-quinolizine-3-carboxylic acid]
MIC range with PB (0.25x MIC) Oct. 1, 2008 n = 8 [7]: ≤0.03 to 1 µg/mL | MIC without PB/MIC + PB ([8]; A. baumannii ATCC 19606, ratio, PB 0.06 μg/ml): ≥16 | MIC ([8]; Acinetobacter baumannii, ATCC19606, read-out: MIC +0.06 μg/ml PB, A. baumannii ATCC 19606, +0.06 μg/ml polymyxin B): ≤ 0.03 µg/mL | MBC [9]: ≤ 0.03 µg/mL | MIC without PB/MIC + PB ([10]; A. baumannii J2, ratio, PB […]): 64 | MIC ([10]; Acinetobacter baumannii, J2, read-out: MIC +[…] PB, A. baumannii J2, +[…] polymyxin B): 0.06 µg/mL (≈ 0.162 µM) | MBC [11]: 0.06 µg/mL (≈ 0.162 µM) | MIC without PB/MIC + PB ([12]; Acinetobacter spp. H064200250, ratio, PB […]): 128 | MIC ([12]; Acinetobacter, read-out: MIC +[…] PB, Acinetobacter spp. H064200250, +[…] polymyxin B): 0.06 µg/mL (≈ 0.162 µM) | MBC [13]: 0.06 µg/mL (≈ 0.162 µM) | MIC without PB/MIC + PB ([14]; A. baumannii A387, ratio, PB 0.06 μg/ml): ≥32 | MIC ([14]; Acinetobacter baumannii, A387, read-out: MIC +0.06 μg/ml PB, A. baumannii A387, +0.06 μg/ml polymyxin B): ≤ 0.03 µg/mL | MBC [15]: ≤ 0.03 µg/mL | MBC [16]: ≤ 0.03 µg/mL | MIC without PB/MIC + PB ([17]; A baumannii A 401, ratio, PB 0.06 μg/ml): 8 | MIC ([17]; Acinetobacter baumannii, A401, read-out: MIC +0.06 μg/ml PB, A baumannii A 401, +0.06 μg/ml polymyxin B): 0.5 µg/mL | MBC [18]: 0.5 µg/mL | MIC without PB/MIC + PB ([19]; A. baumannii A472, ratio, PB […]): ≥128 | MIC ([19]; Acinetobacter baumannii, A472, read-out: MIC +[…] PB, A. baumannii A472, +[…] polymyxin B): ≤ 0.03 µg/mL | MBC [20]: 0.125 µg/mL (≈ 0.338 µM) | MIC without PB/MIC + PB ([21]; A. baumannii A489, ratio, PB […]): ≥256 | MIC ([21]; Acinetobacter baumannii, A489, read-out: MIC +[…] PB, A. baumannii A489, +[…] polymyxin B): ≤ 0.03 µg/mL | MBC [22]: ≤ 0.03 µg/mL | MIC without PB/MIC + PB ([23]; A. baumannii NCTC 13301, ratio, PB […], 1st experiment): ≥512 | MIC ([23]; Acinetobacter baumannii, NCTC13301, read-out: MIC +[…] PB): ≤ 0.03 µg/mL | MIC +0.06 μg/ml PB ([24]; +0.06 μg/ml polymyxin B): 1 µg/mL | MIC ([24]; Acinetobacter baumannii, 24 h, without polymyxin B, read-out: MIC without PB): 16 µg/mL (≈ 43.2 µM) | MIC without PB/MIC + PB ([24]; ratio, PB 0.06 μg/ml): 16 | MBC +0.06 μg/ml PB ([25]; +0.06 μg/ml polymyxin B): 1 µg/mL | MBC ([25]; Acinetobacter baumannii, without polymyxin B, read-out: MBC without PB): 16 µg/mL (≈ 43.2 µM)
